{"source": "paper PMC12037037", "about": "(Proceedings of the National Academy of Sciences of the …, 2025)", "key": {"[1]": {"test_system": "male Sprague Dawley rats", "assay": "Rat forced swim test (FST)", "assay_type": "in vivo", "conditions": "10mg/kg IP, 24 h after administration", "experimental": "(§1) Reads were aligned to the GRCm39 genome assembly using STAR, processed with Picard, and counted with the Subread software. Transcript inclusion criteria consisted of a minimum raw expression level of 25 transcripts in a minimum of 4 samples. Surrogate variable analysis was conducted with the sva package 2023 release v3.5.0 in R and normalization and differential expression analysis was performed with DESeq2 v4.3 with a baseMean threshold of 10. Heatmaps were created with the pheatmap v1.0.12 with sample-wise z-scores plotted and both row and column grouping allowed using pearson's distances and ward.D for clustering. Gene-wise selection criteria for heatmaps were a baseMean expression threshold of 50 to focus on robustly expressed genes, p value < 0.05, and presence in the top 250 genes sorted by absolute value of log2FC. Additionally, z score was capped at 2 for visualization purposes. Schizophrenia gene sets were extracted from a recent TWAS study (30).\n(§2) For Figure S8G, the TWAS set was filtered for FDR < 0.01. Permutation testing was conducted to quantify the overlap of top genes from schizophrenia TWAS with the perm_test function from the bulkWarehouse package 2023 release v1.2.7.\nBriefly, the intersection of top differentially expressed genes and top TWAS genes is compared to an empirical distribution created by calculating the intersection with our top DEGs when randomly sampling candidate genes from our dataset equal to the size of the TWAS sample. Selection criteria from the TWAS include an expression level of 25 transcripts in a minimum of 4 samples in our dataset, FDR < 0.01 from the TWAS and top 250 sorted by absolute value of log2FC. Selection criteria from our gene set were an expression level of 25 transcripts in a minimum of 4 samples, p value < 0.1 and top 250 sorted by absolute value of log2FC.\nRat Forced Swim Test (FST). This study was performed by Psychogenics (Paramus, NJ). Male Sprague Dawley rats were purchased from Envigo (Indianapolis, IN), and were 8 weeks old at the time of the experiments. Upon receipt, they were assigned unique identification numbers (tail marked) and group housed in ventilated cages with 3 rats per cage. All animals […]\nremained housed in groups of three for the remainder of the study. All rats were acclimated to the colony room for up to one week prior to dosing. During the period of acclimation, rats were examined and handled daily, and weighed to assure adequate health and suitability. The room temperature was maintained between 20 °C and 23 °C with a relative humidity of 30%–70%. Lab Rodent Diet 5001 (W.F. Fisher, Cat # 11015) and water were provided ad libitum. Animals were randomly assigned across treatment groups. All testing was performed during the light phase of the light/dark cycle. Behavioral testing was conducted according to established protocols approved by the IACUC committee and PGI Standard Operation Procedures (SOP). Each forced swim chamber was constructed of clear acrylic (height = 40 cm; diameter = 20.3 cm). Only one rat was placed in the swim chamber at a time for each swim test. The water was changed and the chamber cleaned between each animal. The water depth was 16 cm in the first swim session (pre-test) and 30 cm in the second swim session (test). The water was maintained at 23 °C ± 1 °C for all swim sessions. At the end of each swim test rats were dried with paper towels and returned to the home cage. All animals were carefully monitored to ensure their safety in the swim test and any animal unable to maintain a posture with its nose above water was immediately removed from the water and not used further in the study. Animals were first subjected to a pre-test for 15 min. Immediately after the pre-test, they were administered compounds or VEH via i.p. injection (1 ml/kg). Racemic ketamine hydrochloride (10 mg/kg) was used as a positive control. A salt correction factor of 1.36 was used when preparing formulations of (+)-JRT to ensure that the dose corresponded to that of the free base. […]"}, "[2]": {"test_system": "male Long Evans rats", "assay": "Probabilistic reward task (PRT) under chronic cold-water stress", "assay_type": "in vivo", "conditions": "KET 10 mg/kg IP"}, "[3]": {"test_system": "cultured rat embryonic cortical neurons", "assay": "Neuritogenesis assay (Sholl analysis, DIV6)", "assay_type": "cell-based", "conditions": "1 µM, DIV6, mean ± SEM", "description": "Figure S8. […] (A) Sholl analysis of embryonic day 18 (E18) rat cortical\n(D) Area under the curves of the Sholl plots\nN values are shown within the bars. VEH =\nNeuritogenesis Assays. Neuritogenesis Assays were performed as previously described (17) with slight modifications.\nBriefly, 96 well plates were coated with poly-D-lysine and approximately 15,000 cells/well. Neurons were treated after 3 days in vitro (DIV3) for 1 h followed by a complete media change. Cells were incubated for an additional 3 days before fixing and staining for MAP2 on DIV6. Neurites were visualized using a chicken anti-MAP2 antibody (1:10,000; EnCor, CPCA-MAP2) and an anti-chicken IgG secondary antibody conjugated to Alexa Fluor 488 (Life Technologies, 1:500). Plates were imaged in DPBS on a Thermo Scientific CellInsight CX7 High-Content Screening Platform at 20x (N.A. = 0.45). Images were analyzed using the Simple Neurite Tracer and Sholl analysis plug-ins for ImageJ Fiji (version 1.51N). Sholl analysis circle radii = 2 µm increments. All images were taken and analyzed by an experimenter blinded to treatment conditions."}, "[4]": {"test_system": "C57BL/6J mice", "assay": "Amphetamine-induced locomotion", "assay_type": "in vivo", "conditions": "VEH + AMPH 3 mg/kg", "experimental": "Figure S11. […] (A) Pretreatment with (+)-JRT (1 mg/kg,\n(§3) IP) can block AMPH-induced hyperlocomotion in female, but not male, mice. (B) Pretreatment with (+)-JRT (1 mg/kg, IP) […]\n(§4) AMPH = (+)-amphetamine; PCP = phencyclidine; VEH = vehicle; ns = not significant. *p < 0.05, **p < 0.01, ***p < 0.001, ****p < 0.0001, as compared to the comparator(s) indicated by a horizontal bar. See Methods and SI Appendix, Table S1 for full details on statistics.\n(1 picture or pasted object on this page, not shown here)\nAmphetamine-Induced Locomotion. The amphetamine-induced hyperlocomotion assay was performed using male and female C57BL/6J mice that were approximately 8 weeks old at the time of the experiments. Animals were first placed in the test arena (40 cm x 40 cm) for 15 min to obtain a basal reading of locomotion and habituate them to the testing arena.\nNext, animals were administered (+)-JRT (1 mg/kg) or VEH (2.5 mL/kg, i.p) and placed back in the test arena. After 15 min, the animals were administered (+)-amphetamine (3 mg/kg) or VEH (2.5 mL/kg) and placed back in the test arena for 60 minutes. Locomotion during the entire experiment was quantified using ANYmaze Video Tracking System, version 7.07 (Stoelting Co.). The test arena was cleaned thoroughly with 70% ethanol between trials. […]\nas §1, §2\n(§5) Briefly, the intersection of top differentially expressed genes and top TWAS genes is compared to an empirical distribution created by calculating the intersection with our top DEGs when randomly sampling candidate genes from our dataset equal to the size of the TWAS sample. […]"}, "[5]": {"test_system": "panel of 55 central nervous system targets", "assay": "Competitive radioligand binding selectivity panel (Eurofins Discovery)", "experimental": "Figure S3. Selectivity profiles for (+)-JRT and (–)-JRT across 55 central nervous system targets. The effects of (+)- JRT (10 μM) and (–)-JRT (10 μM) on a wide range of targets were assessed by Eurofins Discovery. Data represent % inhibition of the binding of a radioactively labeled ligand specific for each target. Assays were conducted in duplicate and the results were averaged.\nData Analysis and Statistics. Treatments were randomized, and data were analyzed by experimenters blinded to treatment conditions. Statistical analyses were performed using GraphPad Prism (version 10.0.3) unless noted otherwise.\nAll comparisons were planned prior to performing each experiment. No data were excluded. Data are represented as mean ± SEM, unless noted otherwise, with asterisks indicating *p < 0.05, **p < 0.01, ***p < 0.001, and ****p < 0.0001. Details of all statistical tests are shown in SI Appendix, Table S1. […]\nBoth (+)-JRT and (–)-\nJRT were synthesized in-house and judged to be analytically pure based on NMR and LC-MS data. For cell culture experiments, VEH = 0.1% (agonist studies) or 0.2% (antagonist studies) molecular biology grade dimethyl sulfoxide (Sigma-Aldrich). For in vivo experiments, compounds were administered i.p. at 5 mL/kg using 0.9% saline as the vehicle, unless noted otherwise. VEH = USP grade saline (0.9%). Stock solutions for behavioral assays were prepared fresh before use.\nFumarate salts of (+)-JRT and (–)-JRT were used for all biological studies unless noted otherwise.\nAnimals. All experimental procedures involving animals were approved by the Institutional Animal Care and Use Committee (IACUC) at the University of California, Davis, the Salk Institute, Weill Cornell Medicine, McLean Hospital (Harvard Medical School), or the Contract Research Organization (CRO) where the study was performed. All procedures involving animals adhered to principles described in the National Institutes of Health Guide for the Care and Use of Laboratory Animals.\nAnimals were either obtained from Jackson Laboratory (Sacramento, C.A.) or bred in-house unless noted otherwise. Power analyses were conducted to ensure appropriate sample sizes for all experiments involving animals. Animals were housed 2–5 animals of the same sex per cage on a 12h light/dark cycle and were given ad libitum access to food and water unless noted otherwise. The University of California, Davis, the Salk Institute, and Weill Cornell Medicine are accredited by the Association for Assessment and Accreditation of Laboratory Animal Care International (AAALAC). Whenever possible, both sexes were utilized. However, a single sex was utilized in some cases when 1) a contract research organization had only […]\nRadioligand Binding Selectivity Panel. Competitive radioligand binding studies for (+)-JRT (10 μM) and (–)-JRT (10 μM) were performed across a panel of receptors at Eurofins Discovery. Experiments were performed using the free bases of […]\nradioligand and source of receptor (5,6,7,8,9,10,11,12).\nRadioligand Binding Assays (5-HT2AR and 5-HT2CR). The 5-HT2AR and 5-HT2CR competitive radioligand binding assays were performed at Epics Therapeutics S.A. (Belgium, FAST-0505B) using conventional methods. Experiments were performed using the free bases of (+)-JRT and (–)-JRT. […] Nonspecific binding was determined by co-incubation with 200-fold excess of cold competitor DOI. […]"}, "[6]": {"test_system": "male C57BL/6J mice", "assay": "PCP-induced locomotion (Psychogenics)", "assay_type": "in vivo", "conditions": "VEH + PCP 5 mg/kg IP; VEH + VEH 11101 ± 1709", "experimental": "as §3, §4\n(1 picture or pasted object on this page, not shown here) […]\nPCP-Induced Locomotion. The PCP-induced hyperlocomotion assay was performed by Psychogenics using male C57BL/6J mice that were approximately 8 weeks old at the time of the experiments. The experiment was performed during the animal’s light cycle phase. On the day of testing, animals were acclimated to the experimental room for at least 1 h prior to treatment. Animals were then administered with VEH or JRT (IP, 10 mL/kg) and placed in holding cages for 30 min, after which mice were placed in the open field chambers (27.3 x 27.3 x 30.3; Med Associates Inc., St Albans, VT). Baseline activity was recorded for 30 min. Next, mice received either PCP (5 mg/kg, IP, 10 ml/kg) or VEH and were returned to the open field chambers for a 60 min test session. Locomotion was assessed using consecutive infrared beam breaks. At the end of each session, the chambers were thoroughly cleaned. […]\nas §1, §2, §5"}}, "data": [{"smiles": "CNC1(c2ccccc2Cl)CCCCC1=O", "note": "(centres unmarked) [Ketamine, ketamine, reference compound]", "values": [{"measurement": "Swimming (Figure 6B)", "setting": "[1]; VEH 22.10 ± 1.929", "value": "34.10 ± 1.187"}, {"measurement": "Immobility (Figure 6B)", "setting": "[1]; VEH 37.20 ± 1.867, of 60 scored behaviors", "value": "25.00 ± 1.265"}, {"measurement": "Response bias (log b) (Figure 6G)", "setting": "[2]; Day 2, Day 1 0.120 ± 0.042", "value": "0.330 ± 0.035"}, {"measurement": "Response bias (log b) (Figure 6G)", "setting": "[2]; Day 3, Day 1 0.120 ± 0.042", "value": "0.304 ± 0.091"}, {"measurement": "Response bias (log b) (Figure 6G)", "setting": "[2]; Day 11, Day 1 0.120 ± 0.042", "value": "0.266 ± 0.086"}, {"measurement": "Response bias (log b) (Figure 6G)", "setting": "[2]; Day 1 (stressed, before drug) 0.120 ± 0.042", "value": "0.457 ± 0.070"}]}, {"smiles": "CN1CCN(C2=Nc3cc(Cl)ccc3Nc3ccccc32)CC1", "note": "[CLZ, clozapine, reference compound]", "values": [{"measurement": "Area under the curves of the Sholl plots (Figure S8D)", "setting": "[3]; VEH 1.000 ± 0.05010", "value": "1.045 ± 0.04563"}, {"measurement": "Total branches (Figure S8C)", "setting": "[3]; VEH 2.325 ± 0.2641", "value": "3.280 ± 0.2858"}, {"measurement": "Number of primary dendrites (Figure S8B)", "setting": "[3]; VEH 6.275 ± 0.2292", "value": "7.620 ± 0.2586"}]}, {"smiles": "C[C@H](N)Cc1ccccc1", "note": "[AMPH, (+)-amphetamine, reference compound]", "values": [{"measurement": "Locomotion (Figure 11A Females)", "setting": "[4]; female mice, VEH + VEH 101.9 ± 15.04", "value": "418.5 ± 32.97"}, {"measurement": "Locomotion (Figure 11A Males)", "setting": "[4]; male mice, VEH + VEH 59.80 ± 4.206", "value": "330.5 ± 74.31"}]}, {"smiles": "CCN(CC)C(=O)[C@H]1C=C2c3cccc4ccn(c34)C[C@@H]2N(C)C1", "note": "[(–)-JRT]", "values": [{"measurement": "Selectivity across panel of 55 central nervous system targets", "setting": "[5]; 10 μM, free bases", "value": "highly selective for a subset of serotonin receptors"}, {"measurement": "Affinity for dopamine, histamine, or adrenergic receptors", "setting": "[5]; radioligand binding, unlike LSD", "value": "neither of these compounds exhibited affinity"}]}, {"smiles": "c1ccc(C2(N3CCCCC3)CCCCC2)cc1", "note": "[PCP, phencyclidine, reference compound]", "values": [{"measurement": "Locomotion, infrared beam breaks (Figure 11B)", "setting": "[6]", "value": "26552 ± 1179"}]}]}
